The numbers were not newly measured in paper PMC11451938 (RSC Medicinal Chemistry, 2024), which cites them from elsewhere.

For orientation: Ki means the equilibrium dissociation constant of an inhibitor or competing ligand from its target.

For the data set, the target named is hNTS1. As to conditions: read-out: NTS1 Ki; CHO-K1 cells expressing hNTS1.

Consider “JMV 438: NT[8-13] in which the Arg8-Arg9 fragment was replaced with Lys8-Lys9”, for which the Ki was 4 nM.
